Assay results taken from patent US20060183922A1, “CB2-selective cannabinoid derivatives” (priority 2005, published 2006).
“Also recorded” adds a separate entry of the source.

Legend:
CB2 receptor = CB2 receptor (Homo sapiens, UniProt P34972); conditions: read-out: Ki for the CB2 receptor; Huffman et al., Biorg. Med. Chem. 1999; cited from earlier work
[1] = molecular target: T1, human CB2 receptor (transfected human embryonic kidney 293 cells) (Homo sapiens, UniProt P34972); assay: CB2 receptor binding assay, [3H]CP-55,940 displacement; conditions: for Fold selectivity for CB2 over CB1: ratio of CB1 to CB2 affinity
T1 construct: expressed in transfected cells
T1 sequence (P34972 whole entry): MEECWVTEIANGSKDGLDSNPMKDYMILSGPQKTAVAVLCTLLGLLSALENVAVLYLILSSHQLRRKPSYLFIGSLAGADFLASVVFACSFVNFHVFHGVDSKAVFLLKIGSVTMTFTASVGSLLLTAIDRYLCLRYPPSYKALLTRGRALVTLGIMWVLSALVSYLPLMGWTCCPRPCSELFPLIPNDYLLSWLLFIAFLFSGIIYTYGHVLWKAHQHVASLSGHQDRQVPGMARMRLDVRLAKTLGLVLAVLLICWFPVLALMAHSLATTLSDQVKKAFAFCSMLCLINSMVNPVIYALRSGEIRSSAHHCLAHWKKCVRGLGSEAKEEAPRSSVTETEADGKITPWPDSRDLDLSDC
Procedure: 2. CB2 Assay. Human embryonic kidney 293 cells were maintained in Dulbecco's modified Eagle's medium (DMEM) with 10% fetal clone II (HyClone, Logan Utah) and 5% CO2 at 37° C. in a Forma incubator. Cell lines were created by transfection of CB2pcDNA3 into 293 cells by the Lipofectamine reagent (Life Technologies, Gaithersburg, Md.). The human CB2 cDNA was a gift. Stable transformants were selected in growth medium containing geneticin (1 mg/mL, reagent, Life Technologies, Gaithersburg, Md.). Colonies of about 500 cells were picked (about 2 weeks post transfection) and allowed to expand, then tested for expression of receptor mRNA by northern blot analysis. Cell lines containing moderate to high levels of receptor mRNA were tested for receptor binding properties. Transfected cell lines were maintained in DMEM with 10% fetal clone II plus 0.3-0.5 mg/mL geneticin and 5% CO2 at 37° C. in a Forma incubator.
The current assay is a modification of Compton et al. (Compton, D. R.; Rice, K. C.; De Costa, B. R.; Razdan, R. K.; Melvin, L. S.; Johnson, M. R.; Martin, B. R. J. Pharmacol Exp. Ther. 1993, 265, 218.) Cells were harvested in phosphate-buffered saline containing 1 mM EDTA and centrifuged at 500 g. The cell pellet was homogenized in 10 mL of solution A (50 mM Tris-HCl, 320 mM sucrose, 2 mM EDTA, 5 mM MgCl2, pH 7.4). The homogenate was centrifuged at 1,600×g (10 min), the supernatant saved, and the pellet washed three times in solution A with subsequent centrifugation. The combined supernatants were centrifuged at 100,000×g (60 min). The (P2 membrane) pellet was resuspended in 3 mL of buffer B (50 mM Tris-HCl, 1 mM EDTA, 3 mM MgCl2, pH 7.4) to yield a protein concentration of approximately 1 mg/mL. The tissue preparation was divided into equal aliquots, frozen on dry ice, and stored at −70° C. Binding was initiated by the addition of 40-50 μg membrane protein to silanized tubes containing [^3H]CP-55,940 (102.9 Ci/mmol) and a sufficient volume of buffer C (50 mM Tris-HCl, 1 mM EDTA, 3 mM MgCl2, and 5 mg/mL fatty acid free BSA, pH 7.4) to bring the total volume to 0.5 mL. The addition of 1 μM unlabelled CP-55,940 was used to assess nonspecific binding. Following incubation (30° C. for 1 hour), binding was terminated by the addition of 2 mL of ice cold buffer D (50 mM Tris-HCl, pH 7.4, plus 1 mg/mL BSA) and rapid vacuum filtration through Whatman GF/C filters (pretreated with polyethyleneimine (0.1%) for at least 2 hours). Tubes were rinsed with 2 mL of ice cold buffer D, which was also filtered, and the filters subsequently rinsed twice with 4 mL of ice cold buffer D. Before radioactivity was quantitated by liquid scintillation spectrometry, filters were shaken for 1 hr in 5 mL of scintillation fluid.
(§1) CP-55,940 and all cannabinoid analogs were prepared by suspension in assay buffer from a 1 mg/mL ethanolic stock without evaporation of the ethanol (final concentration of no more than 0.4%). Competition assays were conducted with 1 nM [^3H]-CP55,940 and 6 concentrations (0.1 nM to 10 μM displacing ligands). Displacement IC50 values were originally determined by unweighted least-squares linear regression of log concentration-percent displacement data and then converted to Ki values using the method of Cheng and Prusoff(Cheng, Y. C.; Prusoff, W. H. Biochem. Pharmacol. 1973, 22, 3099.)

CB1 receptor = molecular target: T2, CB1 receptor (Rattus norvegicus, UniProt P20272); assay: CB1 receptor binding assay, [3H]CP-55,940 displacement, whole brain P2 membranes
T2 construct: except whole brain (rather than cortex only) was used; from tissue; host or cells: whole brain P2 membranes
T2 sequence (P20272 whole entry): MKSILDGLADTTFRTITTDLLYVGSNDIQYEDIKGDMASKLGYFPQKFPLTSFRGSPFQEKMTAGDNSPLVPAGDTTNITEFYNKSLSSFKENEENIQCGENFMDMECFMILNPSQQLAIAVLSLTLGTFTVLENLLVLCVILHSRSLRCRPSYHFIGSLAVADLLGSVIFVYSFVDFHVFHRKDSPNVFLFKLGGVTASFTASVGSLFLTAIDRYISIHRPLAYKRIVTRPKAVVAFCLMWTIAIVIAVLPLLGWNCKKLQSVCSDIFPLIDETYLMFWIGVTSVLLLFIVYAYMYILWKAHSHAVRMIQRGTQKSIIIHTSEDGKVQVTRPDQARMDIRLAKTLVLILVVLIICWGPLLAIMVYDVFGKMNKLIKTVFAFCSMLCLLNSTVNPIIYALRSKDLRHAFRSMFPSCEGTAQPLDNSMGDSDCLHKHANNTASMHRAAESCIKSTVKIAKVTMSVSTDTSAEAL
Procedure: 1. CB1 Assay. [^3H] […] Displacement curves were generated by incubating drugs with 1 nM of [^3H] CP-55,940. The assays were performed in triplicate, and the results represent the combined data from three individual experiments.
as §1, with “Competition assays were conducted with 1 nM [^3H]-CP55,940 and 6 concentrations (0.1 nM to 10 μM displacing ligands).” left out

[2] = test system: formalin model of inflammatory pain; assay: Formalin model of inflammatory pain; type: in vivo; conditions: male ICR mice
Procedure: One of the above CB2 selective agonists was chosen for testing in the formalin model of inflammatory pain in mice. Subjects consisted of male ICR mice (Harlan Labs) weighing between 20-25 g. The formalin test was carried out in an open Plexiglas cage, with a mirror placed under the floor to allow an unobstructed view of the paws. Mice were allowed to acclimate for 15 min in the test cage before formalin injection. Each animal was injected with 20 μl of 2.5% formalin in the intraplantar region of the right hindpaw. Mice were then observed 0-5 min (Phase 1) and 20-45 min (Phase 2) post-formalin, and the amount of time spent licking the injected paw was recorded. The drug was injected i.p. 30 min before formalin injection.

CB2 receptor, sequence (P34972 whole entry): as the sequence (P34972 whole entry) above

Row | SMILES | Ki (CB2 receptor) [nM] | Ki [1] [nM] | Fold selectivity for CB2 over CB1 [1] [fold] | Ki (CB1 receptor) [nM] | pain response (time spent licking injected paw) ([2]; 20 mg/kg i.p. 30 min before formalin, listed as JWH-350) | nociception, dose dependence ([2]; i.p. 30 min before formalin)
1 | CCCCCCC(C)(C)c1ccc2c(c1)OC(C)(C)C1CC=C(C)CC21 (stereo not drawn) [1-deoxy-Δ^8-THC-DMH] | 3 |  |  |  |  | 
2 | CCC[C@H](C)Cc1ccc2c(c1)OC(C)(C)[C@@H]1CC=C(C)C[C@@H]21 [Compound 255, 1-Deoxy-3-(2′S-methylpentyl)-Δ^8-tetrahydrocannabinol] |  | 24.3 ± 8.6 | 174 | 4310 ± 649 |  | 
3 | CCCCC(C)(C)c1cc(OC)c2c(c1)OC(C)(C)[C@@H]1CC[C@@H](O)C[C@@H]21 [Compound 299, 1-Deoxy-9β-hydroxy-1-methoxy-3-(1′,1′dimethylpentyl)-11-nor-hexahydrocannabinol] |  | 29.8 ± 1.77 | 14 | 415 ± 49.8 |  | 
4 | CCCC(C)(C)c1ccc2c(c1)OC(C)(C)[C@@H]1CC[C@@H](O)C[C@@H]21 [Compound 310, 1-Deoxy-9β-hydroxy-3-(1′,1′dimethylbutyl)-11-nor-hexahydrocannabinol] |  | 36.1 ± 2.8 | 29 | 1060 |  | 
5 | CCCCCC(C)(C)c1cc(OC)c2c(c1)OC(C)(C)[C@@H]1CC[C@H](O)C[C@@H]21 [Compound 349, 9α-Hydroxy-1-methoxy-3-(1′,1′dimethylhexyl)-11-nor-hexahydrocannabinol] |  | 38 ± 4.3 | 10 | 375.7 ± 0.7 |  | 
6 | CCCCCC(C)(C)c1cc(OC)c2c(c1)OC(C)(C)[C@@H]1CC[C@@H](O)C[C@@H]21 [Compound 350, 9β-Hydroxy-1-methoxy-3-(1′,1′dimethylhexyl)-11-nor-hexahydrocannabinol] |  | 11.8 ± 1.03 | 33 | 395 ± 19.8 | completely inhibited pain response; also recorded: completely eliminating the pain response | inhibits nociception in a dose-dependent manner
7 | CC[C@H](C)Cc1ccc2c(c1)OC(C)(C)[C@@H]1CC=C(C)C[C@@H]21 [Compound 352, 1-Deoxy-3-(2′S-methylbutyl)-Δ^8-tetrahydrocannabinol] |  | 46.5 ± 2.16 | 213 | > 10000 |  | 
8 | CC[C@@H](C)Cc1ccc2c(c1)OC(C)(C)[C@@H]1CC=C(C)C[C@@H]21 [Compound 353, 1-Deoxy-3-(2′R-methylbutyl)-Δ^8-tetrahydrocannabinol] |  | 31.3 ± 0.78 | 48 | 1493 ± 10 |  | 
9 | CC[C@@H](C)Cc1cc(OC)c2c(c1)OC(C)(C)[C@@H]1CC=C(C)C[C@@H]21 [Compound 359, 1-Methoxy-3-(2′R-methylbutyl)-Δ^8-tetrahydrocannabinol] |  | 13.3 ± 0.15 | 219 | 2920 ± 450 |  | 
